Experimental data taken from ChEMBL document CHEMBL1287719, “N⁶-Alkyladenosines: Synthesis and evaluation of in vitro anticancer activity” (Bioorg Med Chem, 2010).
Calls of active or inactive are those of the source. No cut-off for these calls is given here.

Experiments:
[1] = system: T-24; assay: Cytotoxicity against human T24 cells at 10 uM after 72 hrs by MTT assay; assay type: functional, cell-based
[2] = system: J82; assay: Cytotoxicity against human J82 cells at 10 uM after 72 hrs by MTT assay; assay type: functional, cell-based
[3] = system: Caco-2; assay: Cytotoxicity against human Caco-2 cells at 10 uM after 72 hrs by MTT assay; assay type: functional, cell-based
[4] = system: MDA-MB-231; assay: Cytotoxicity against human MDA-MB-231 cells at 10 uM after 72 hrs by MTT assay; assay type: functional, cell-based
[5] = system: T-24; assay: Cytotoxicity against human T24 cells assessed as inhibition of clones formation at 10 uM after 1 week by clonogenic assay; assay type: functional, cell-based
[6] = system: T-24; assay: Growth inhibition of human T24 cells assessed as reduction of cell count after trypsinization at 10 uM after 72 hrs by MTT assay; assay type: functional, cell-based
[7] = system: T-24; assay: Inhibition of human T24 cells invasion on Matrigel after 24 hrs; assay type: functional, cell-based
[8] = molecular target: Matrix metalloproteinase-9 (Homo sapiens) (UniProt P14780); assay: Induction of MMP9 activity in human T24 cells after 1 hr by zymography; assay type: cell-based; conditions: T-24
Sequence of Matrix metalloproteinase-9 (Homo sapiens) (P14780 whole entry): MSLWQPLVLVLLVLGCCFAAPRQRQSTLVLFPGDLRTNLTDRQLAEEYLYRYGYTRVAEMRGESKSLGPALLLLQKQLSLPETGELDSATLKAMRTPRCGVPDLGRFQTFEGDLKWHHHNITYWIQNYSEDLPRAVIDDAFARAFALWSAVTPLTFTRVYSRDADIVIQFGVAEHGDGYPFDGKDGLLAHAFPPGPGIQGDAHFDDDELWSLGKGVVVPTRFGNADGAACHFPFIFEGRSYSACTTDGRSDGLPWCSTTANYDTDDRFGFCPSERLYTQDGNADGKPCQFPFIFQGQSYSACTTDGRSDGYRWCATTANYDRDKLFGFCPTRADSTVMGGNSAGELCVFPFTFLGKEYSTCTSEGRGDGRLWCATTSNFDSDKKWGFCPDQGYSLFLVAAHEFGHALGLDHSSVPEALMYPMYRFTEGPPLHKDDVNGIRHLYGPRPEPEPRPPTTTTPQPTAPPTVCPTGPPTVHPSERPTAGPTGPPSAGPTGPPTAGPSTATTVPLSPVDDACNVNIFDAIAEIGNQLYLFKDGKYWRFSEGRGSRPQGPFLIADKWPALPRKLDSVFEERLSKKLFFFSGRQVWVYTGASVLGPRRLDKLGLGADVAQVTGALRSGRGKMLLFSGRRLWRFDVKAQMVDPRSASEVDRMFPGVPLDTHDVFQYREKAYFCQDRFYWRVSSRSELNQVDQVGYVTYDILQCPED

[9] = system: T-24; assay: Inhibition of human T24 cell migration by wound healing assay; assay type: functional, cell-based

| Activity [8] | SMILES | Activity [1] | Activity [2] | Activity [3] | Activity [4] | Activity [5] | Activity [6] | inhibition [7] | Activity [9] |
| --- | --- | --- | --- | --- | --- | --- | --- | --- | --- |
| inactive | OC[C@H]1O[C@@H](n2cnc3c(NCc4ccccc4)ncnc32)[C@H](O)[C@@H]1O | Active | Active | Active | Active | Active | Active | inactive | inactive |
| inactive | CCCCNc1ncnc2c1ncn2[C@@H]1O[C@H](CO)[C@@H](O)[C@H]1O | Active | Active | Active | Active | Active | Active | inactive | inactive |

Continued, molecule first:

| SMILES | Activity [8] | Activity [1] | Activity [2] | Activity [3] | Activity [4] | Activity [5] | Activity [6] | inhibition [7] | Activity [9] |
| --- | --- | --- | --- | --- | --- | --- | --- | --- | --- |
| CC(C)CCNc1ncnc2c1ncn2[C@@H]1O[C@H](CO)[C@@H](O)[C@H]1O | inactive | Active | Active | Active | Active | Active | Active | inactive | inactive |
| OC[C@H]1O[C@@H](n2cnc3c(NCC4CCC4)ncnc32)[C@H](O)[C@@H]1O | inactive | Active | Active | Active | Active | Active | Active | inactive | inactive |
| C=CCNc1ncnc2c1ncn2[C@@H]1O[C@H](CO)[C@@H](O)[C@H]1O | inactive | Active | Active | Active | Active | Active | Active | inactive | inactive |
